In US8420811B2, “Tetrahydroisoquinolines and intermediates therefor” (Bristol-Myers Squibb Company, priority 2008, dated 2013):
≈ marks a conversion by molar mass, not a printed value. Values belong to the compound of their own block, whether it stands above or below them.

Key:
Format in all cases: physicochemical
[1] = pH-Solubility profile (aqueous solubility); details: for solubility: aqueous solution, aqueous buffer
[2] = Solubility profile (USP definition) in solvents
[3] = pKa
[4] = Distribution coefficient
[5] = Solution pH; details: at about 1 μg/mL concentration in water

solubility ([1]; at pH 2.0): 15600 µg/mL (≈ 42.6 mM) | solubility ([1]; at pH 4.4): 1760 µg/mL (≈ 4.8 mM) | solubility ([1]; at solution pH 6.5 and above): ≤ 1 µg/mL
SMILES: CN1Cc2cc(-c3ccc(N)nn3)ccc2[C@H](c2ccc3ccccc3c2)C1 [Compound 2, (S)-6-(2-methyl-4-(naphthalen-2-yl)-1,2,3,4-tetrahydroisoquinolin-7-yl)pyridazin-3-amine]

aqueous solubility (in words) ([1]; general statement, no pH given): high aqueous solubility | Solubility profile (USP definition) ([2]; PEG 400): sparingly soluble: PEG 400 | Solubility profile (USP definition) ([2]; n-heptane): practically insoluble: n-heptane | Solubility profile (USP definition) ([2]; tetrahydrofuran): freely soluble: tetrahydrofuran | pKa ([3]; first of two printed pKa values): 4.9 | pKa ([3]; second of two printed pKa values): 7.8 | Distribution coefficient Log Do/b ([4]; at pH 6.5): 3.10 | Distribution coefficient Log Do/b ([4]; at pH 7.4): 3.82
SMILES: CN1Cc2cc(-c3ccc(N)nn3)ccc2[C@H](c2ccc3ccccc3c2)C1 [Form N-1, 6-[(4S)-1,2,3,4-tetrahydro-2-methyl-4-(2-naphthalenyl)-7-isoquinolinyl]-3-pyridazinamine]
Solubility profile (USP definition) ([2]; N,N-dimethylacetamide): soluble: N,N-dimethylacetamide, dimethylsulfoxide | Solubility profile (USP definition) ([2]; acetone): slightly soluble: isopropanol, acetone, ethanol, methanol | Solubility profile (USP definition) ([2]; acetonitrile): very slightly soluble: acetonitrile, ethyl acetate, n-butanol | Solubility profile (USP definition) ([2]; dichloromethane): slightly soluble: isopropanol, acetone, ethanol, methanol | Solubility profile (USP definition) ([2]; dimethylsulfoxide): soluble: N,N-dimethylacetamide, dimethylsulfoxide | Solubility profile (USP definition) ([2]; ethanol): slightly soluble: isopropanol, acetone, ethanol, methanol | Solubility profile (USP definition) ([2]; ethyl acetate): very slightly soluble: acetonitrile, ethyl acetate, n-butanol | Solubility profile (USP definition) ([2]; isopropanol): slightly soluble: isopropanol, acetone, ethanol, methanol | Solubility profile (USP definition) ([2]; methanol): slightly soluble: isopropanol, acetone, ethanol, methanol | Solubility profile (USP definition) ([2]; n-butanol): very slightly soluble: acetonitrile, ethyl acetate, n-butanol | Solubility profile (USP definition) ([2]; propylene glycol): slightly soluble: isopropanol, acetone, ethanol, methanol | Solution pH [5]: ~7.0 at about 1 μg/mL concentration in water
